{"source": "patent US20260232767A1", "about": "“INTERLEUKIN-23 RECEPTOR ANTAGONIST PEPTIDES FOR USE IN THE TREATMENT OF PSORIASIS” (Janssen Pharmaceutica NV, priority 2023, published 2026)", "tested_on": "subjects with moderate-to-severe plaque psoriasis", "experiment": "Safety, adverse events, Example 2 through Week 56", "assay_type": "in vivo, human", "settings": "25 mg QD, through Week 56", "source_text": "The LTE safety analysis was based on randomized participants in Example who entered the present long-term extension study and received at least one dose of study intervention (including a partial dose) during the study period.", "data": [{"smiles": "CC(=O)NCCCC[C@@H]1NC(=O)[C@H](Cc2c[nH]c3c(C)cccc23)NC(=O)[C@H]([C@@H](C)O)NC(=O)[C@H](CC(N)=O)NC(=O)[C@@H](NC(C)=O)C(C)(C)SSC(C)(C)[C@@H](C(=O)N[C@@H](Cc2ccc(OCCN)cc2)C(=O)N[C@@H](Cc2ccc3ccccc3c2)C(=O)NC2(C(=O)N[C@@H](CCC(=O)O)C(=O)N[C@@H](CC(N)=O)C(=O)N[C@@H](Cc3cccnc3)C(=O)N(C)CC(N)=O)CCOCC2)NC1=O", "note": "[IL-23 receptor antagonist peptide, Ac-[Pen]*-N-T-[W(7-Me)]-[Lys(Ac)]-[Pen]*-Phe[4-(2-aminoethoxy)]-[2-Nal]-[THP]-E-N-[3-Pal]-Sarc-NH2 (*[Pen]-[Pen]* formdisulfidebond)]", "values": [{"measurement": "Cardiac disorders: number of subjects", "value": 0}, {"measurement": "Chills: number of subjects", "value": 0}, {"measurement": "Cholelithiasis: number of subjects", "value": 0}, {"measurement": "Chronic obstructive pulmonary disease: number of subjects", "value": 0}, {"measurement": "Coronary artery disease: number of subjects", "value": 0}, {"measurement": "Cough: % of subjects", "value": "(2.3%)"}, {"measurement": "Cough: number of subjects", "value": 1}, {"measurement": "Decreased appetite: % of subjects", "value": "(2.3%)"}, {"measurement": "Decreased appetite: number of subjects", "value": 1}, {"measurement": "Depression: number of subjects", "value": 0}, {"measurement": "Dermal cyst: % of subjects", "value": "(2.3%)"}, {"measurement": "Dermal cyst: number of subjects", "value": 1}, {"measurement": "Dermatitis acneiform: number of subjects", "value": 0}, {"measurement": "Dermatitis contact: number of subjects", "value": 0}, {"measurement": "Diabetes mellitus: % of subjects", "value": "(2.3%)"}, {"measurement": "Diabetes mellitus: number of subjects", "value": 1}, {"measurement": "Diffuse alopecia: % of subjects", "value": "(2.3%)"}, {"measurement": "Diffuse alopecia: number of subjects", "value": 1}, {"measurement": "Dysuria: number of subjects", "value": 0}, {"measurement": "Ear and labyrinth disorders: % of subjects", "value": "(2.3%)"}, {"measurement": "Ear and labyrinth disorders: number of subjects", "value": 1}, {"measurement": "Endocrine disorders: number of subjects", "value": 0}, {"measurement": "Eye disorders: number of subjects", "value": 0}, {"measurement": "Eyelid skin dryness: number of subjects", "value": 0}, {"measurement": "Fatigue: number of subjects", "value": 0}, {"measurement": "General disorders and administration site conditions: % of subjects", "value": "(2.3%)"}, {"measurement": "General disorders and administration site conditions: number of subjects", "value": 1}, {"measurement": "Goiter: number of subjects", "value": 0}, {"measurement": "Haemochromatosis: number of subjects", "value": 0}, {"measurement": "Hand dermatitis: number of subjects", "value": 0}, {"measurement": "Hematuria: number of subjects", "value": 0}, {"measurement": "Hepatobiliary disorders: % of subjects", "value": "(2.3%)"}, {"measurement": "Hepatobiliary disorders: number of subjects", "value": 1}, {"measurement": "Hypercholesterolemia: number of subjects", "value": 0}, {"measurement": "Hyperglycemia: number of subjects", "value": 0}, {"measurement": "Hyperlipidemia: number of subjects", "value": 0}, {"measurement": "Hypertension: number of subjects", "value": 0}, {"measurement": "Hypertransaminasemia: number of subjects", "value": 0}, {"measurement": "Hypertriglyceridemia: % of subjects", "value": "(2.3%)"}, {"measurement": "Hypertriglyceridemia: number of subjects", "value": 1}, {"measurement": "Hypoacusis: number of subjects", "value": 0}, {"measurement": "Immune system disorders: number of subjects", "value": 0}, {"measurement": "Influenza like illness: number of subjects", "value": 0}, {"measurement": "Insomnia: number of subjects", "value": 0}, {"measurement": "Intertrigo: number of subjects", "value": 0}, {"measurement": "Ketonuria: number of subjects", "value": 0}, {"measurement": "Leukocyturia: number of subjects", "value": 0}, {"measurement": "Leukopenia: number of subjects", "value": 0}, {"measurement": "Libido decreased: number of subjects", "value": 0}, {"measurement": "Liver disorder: number of subjects", "value": 0}, {"measurement": "Lymphopenia: number of subjects", "value": 0}, {"measurement": "Menopause: number of subjects", "value": 0}, {"measurement": "Metabolism and nutrition disorders: % of subjects", "value": "(4.7%)"}, {"measurement": "Metabolism and nutrition disorders: number of subjects", "value": 2}, {"measurement": "Neoplasms benign, malignant and unspecified (incl cysts and polyps): number of subjects", "value": 0}, {"measurement": "Nephrolithiasis: number of subjects", "value": 0}, {"measurement": "Neutropenia: number of subjects", "value": 0}, {"measurement": "Night sweats: number of subjects", "value": 0}, {"measurement": "Non-cardiac chest pain: number of subjects", "value": 0}, {"measurement": "Ocular cyst: number of subjects", "value": 0}, {"measurement": "Oedema peripheral: number of subjects", "value": 0}, {"measurement": "Oropharyngeal pain: number of subjects", "value": 0}, {"measurement": "Procedural pain: number of subjects", "value": 0}, {"measurement": "Productive cough: number of subjects", "value": 0}, {"measurement": "Proteinuria: number of subjects", "value": 0}, {"measurement": "Pruritus: number of subjects", "value": 0}, {"measurement": "Psoriasis: number of subjects", "value": 0}, {"measurement": "Psychiatric disorders: number of subjects", "value": 0}, {"measurement": "Pyrexia: % of subjects", "value": "(2.3%)"}, {"measurement": "Pyrexia: number of subjects", "value": 1}, {"measurement": "Rash pruritic: number of subjects", "value": 0}, {"measurement": "Renal and urinary disorders: % of subjects", "value": "(2.3%)"}, {"measurement": "Renal and urinary disorders: number of subjects", "value": 1}, {"measurement": "Renal mass: % of subjects", "value": "(2.3%)"}, {"measurement": "Renal mass: number of subjects", "value": 1}, {"measurement": "Respiratory, thoracic and mediastinal disorders: % of subjects", "value": "(2.3%)"}, {"measurement": "Respiratory, thoracic and mediastinal disorders: number of subjects", "value": 1}, {"measurement": "Retinal vein occlusion: number of subjects", "value": 0}, {"measurement": "Rhinorrhoea: number of subjects", "value": 0}, {"measurement": "Seasonal allergy: number of subjects", "value": 0}, {"measurement": "Skin and subcutaneous tissue disorders: % of subjects", "value": "(7.0%)"}, {"measurement": "Skin and subcutaneous tissue disorders: number of subjects", "value": 3}, {"measurement": "Skin laceration: number of subjects", "value": 0}, {"measurement": "Skin papilloma: number of subjects", "value": 0}, {"measurement": "Social circumstances: number of subjects", "value": 0}, {"measurement": "Steatohepatitis: % of subjects", "value": "(2.3%)"}, {"measurement": "Steatohepatitis: number of subjects", "value": 1}, {"measurement": "Subjects with 1 or more treatment-emergent serious adverse events", "value": 0}, {"measurement": "Subjects with AE leading to discontinuation: Abdominal discomfort", "value": 0}, {"measurement": "Subjects with AE leading to discontinuation: Abdominal pain", "value": 0}, {"measurement": "Subjects with AE leading to discontinuation: Asthenia", "value": 0}, {"measurement": "Subjects with AE leading to discontinuation: Chills", "value": 0}, {"measurement": "Subjects with AE leading to discontinuation: Ear and labyrinth disorders", "value": 0}, {"measurement": "Subjects with AE leading to discontinuation: Gastrointestinal disorders", "value": 0}, {"measurement": "Subjects with AE leading to discontinuation: General disorders and administration site conditions", "value": 0}, {"measurement": "Subjects with AE leading to discontinuation: Headache", "value": 0}, {"measurement": "Subjects with AE leading to discontinuation: Insomnia", "value": 0}, {"measurement": "Subjects with AE leading to discontinuation: Nausea", "value": 0}, {"measurement": "Subjects with AE leading to discontinuation: Nervous system disorders", "value": 0}, {"measurement": "Subjects with AE leading to discontinuation: Proctalgia", "value": 0}, {"measurement": "Subjects with AE leading to discontinuation: Psoriasis", "value": 0}, {"measurement": "Subjects with AE leading to discontinuation: Psychiatric disorders", "value": 0}, {"measurement": "Subjects with AE leading to discontinuation: Skin and subcutaneous tissue disorders", "value": 0}, {"measurement": "Subjects with AE leading to discontinuation: Suicide attempt", "value": 0}, {"measurement": "Subjects with AE leading to discontinuation: Vertigo", "value": 0}, {"measurement": "Subjects with AE leading to discontinuation: Vomiting", "value": 0}, {"measurement": "Subjects with COVID-19 associated AE: SARS-CoV-2 test positive", "value": 0}, {"measurement": "Subjects with treatment-emergent AE: Influenza", "value": 0}, {"measurement": "Subjects with treatment-emergent serious AE: COVID-19", "value": 0}, {"measurement": "Subjects with treatment-emergent serious AE: Cardiac disorders", "value": 0}, {"measurement": "Subjects with treatment-emergent serious AE: Cerebrovascular accident", "value": 0}, {"measurement": "Subjects with treatment-emergent serious AE: Coronary artery disease", "value": 0}, {"measurement": "Subjects with treatment-emergent serious AE: Diverticulitis", "value": 0}, {"measurement": "Subjects with treatment-emergent serious AE: Foot deformity", "value": 0}, {"measurement": "Subjects with treatment-emergent serious AE: General disorders and administration site conditions", "value": 0}, {"measurement": "Subjects with treatment-emergent serious AE: Infected cyst", "value": 0}, {"measurement": "Subjects with treatment-emergent serious AE: Infections and infestations", "value": 0}, {"measurement": "Subjects with treatment-emergent serious AE: Injury, poisoning and procedural complications", "value": 0}, {"measurement": "Subjects with treatment-emergent serious AE: Intervertebral disc protrusion", "value": 0}, {"measurement": "Subjects with treatment-emergent serious AE: Ligament injury", "value": 0}, {"measurement": "Subjects with treatment-emergent serious AE: Musculoskeletal and connective tissue disorders", "value": 0}]}]}
